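Cells were grown in 96-well plates and exposed to each compound for 48 hours at five concentrations; endpoints were interpolated linearly between bracketing concentrations, or set to the highest concentration if not reached. GI50: concentration for 50% inhibition of growth.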 Calls of active or inactive are those of the source. Rule as the data show it: active = GI50 up to about 1.1 µM and inactive = higher.
Assays:
Experiment in all cases: NCI tumour cell line growth inhibition, 48 h
UACC-257 = tested on: UACC-257
U-251 = tested on: U-251
RPMI-8226 = tested on: RPMI-8226
UO-31 = tested on: UO-31
HCT-116 = tested on: HCT-116
HCC 2998 = tested on: HCC 2998
A498 = tested on: A498
NCI-H460 = tested on: NCI-H460
SK-MEL-28 = tested on: SK-MEL-28
NCI-H23 = tested on: NCI-H23
SK-MEL-5 = tested on: SK-MEL-5
SF-539 = tested on: SF-539
SNB-75 = tested on: SNB-75
SR = tested on: SR
SN12C = tested on: SN12C
OVCAR-8 = tested on: OVCAR-8
786-0 = tested on: 786-0
CAKI-1 = tested on: CAKI-1
TK-10 = tested on: TK-10
MDA-N = tested on: MDA-N

| Compound | GI50 (UACC-257) | GI50 (U-251) | GI50 (RPMI-8226) | GI50 (UO-31) | GI50 (HCT-116) | GI50 (HCC 2998) | GI50 (A498) | GI50 (NCI-H460) | GI50 (SK-MEL-28) | GI50 (NCI-H23) | GI50 (SK-MEL-5) | GI50 (SF-539) | GI50 (SNB-75) | GI50 (SR) | GI50 (SN12C) | GI50 (OVCAR-8) | GI50 (786-0) | GI50 (CAKI-1) | GI50 (TK-10) | GI50 (MDA-N) |
| --- | --- | --- | --- | --- | --- | --- | --- | --- | --- | --- | --- | --- | --- | --- | --- | --- | --- | --- | --- | --- |
| COc1ccc(Oc2ccccc2N)cc1 | 57.4 µM (inactive) | 12.4 µM (inactive) | 31.8 µM (inactive) | 26.5 µM (inactive) | 17.2 µM (inactive) | 20.8 µM (inactive) | > 100 µM (inactive) | 30.6 µM (inactive) | 28.2 µM (inactive) | 43 µM (inactive) | 13.2 µM (inactive) | 20.2 µM (inactive) | 23.7 µM (inactive) | 18.3 µM (inactive) | 44.8 µM (inactive) | 56.2 µM (inactive) | – | – | – | – |
| c1ccc(OCc2nnc3n2N=C(c2ccccc2)CS3)cc1 | > 100 µM (inactive) | > 100 µM (inactive) | > 100 µM (inactive) | 23 µM (inactive) | > 100 µM (inactive) | > 100 µM (inactive) | 53.5 µM (inactive) | > 100 µM (inactive) | > 100 µM (inactive) | > 100 µM (inactive) | > 100 µM (inactive) | > 100 µM (inactive) | 33 µM (inactive) | > 100 µM (inactive) | > 100 µM (inactive) | > 100 µM (inactive) | > 100 µM (inactive) | 71 µM (inactive) | > 100 µM (inactive) | – |
| CC1(C)N=C(N)N=C(N)N1c1cccc(OCc2cccc(N)c2)c1 | 6.14 µM (inactive) | 14.7 µM (inactive) | 56.1 µM (inactive) | > 100 µM (inactive) | 13.3 µM (inactive) | – | > 93.1 µM (inactive) | 3.87 µM (inactive) | > 100 µM (inactive) | 14.2 µM (inactive) | 12.4 µM (inactive) | 19.9 µM (inactive) | > 100 µM (inactive) | – | 19 µM (inactive) | > 83 µM (inactive) | 10.9 µM (inactive) | > 100 µM (inactive) | > 52.1 µM (inactive) | 6.1 µM (inactive) |
| Cc1c(C2Cc3ccccc3N2C(=O)/C=C\C(=O)O)c2ccccc2n1C (stereo not given) | 16.2 µM (inactive) | 20.1 µM (inactive) | – | 20.4 µM (inactive) | 27.5 µM (inactive) | 21.4 µM (inactive) | 18 µM (inactive) | > 100 µM (inactive) | – | 25.9 µM (inactive) | 18.2 µM (inactive) | 21.6 µM (inactive) | 21.8 µM (inactive) | 30.1 µM (inactive) | 19.5 µM (inactive) | 18.5 µM (inactive) | 18.4 µM (inactive) | 25.8 µM (inactive) | 22 µM (inactive) | – |
| O=C(Nc1cc(Cl)ccc1Cl)C(=O)C(c1cnc2ccccc2n1)[N+](=O)[O-] (stereo not given) | > 100 µM (inactive) | > 100 µM (inactive) | > 100 µM (inactive) | > 100 µM (inactive) | > 100 µM (inactive) | > 100 µM (inactive) | > 100 µM (inactive) | > 100 µM (inactive) | > 100 µM (inactive) | > 100 µM (inactive) | > 100 µM (inactive) | > 100 µM (inactive) | > 100 µM (inactive) | > 100 µM (inactive) | > 100 µM (inactive) | > 100 µM (inactive) | > 100 µM (inactive) | > 100 µM (inactive) | > 100 µM (inactive) | – |
| Cn1cc(C2NC(=O)c3ccccc3N2)c2ccccc21 (stereo not given) | 5.6 µM (inactive) | 0.889 µM (active) | 0.249 µM (active) | > 100 µM (inactive) | 0.587 µM (active) | 1.19 µM (inactive) | 0.206 µM (active) | 1.06 µM (active) | 0.643 µM (active) | 1.31 µM (inactive) | 0.182 µM (active) | 1.86 µM (inactive) | 0.873 µM (active) | – | 1.63 µM (inactive) | – | 0.955 µM (active) | – | 2.94 µM (inactive) | 0.0632 µM (active) |
| CC(C)(c1ccc(OC#N)cc1)c1ccc(OC#N)cc1 | > 100 µM (inactive) | > 68.5 µM (inactive) | > 52.6 µM (inactive) | > 100 µM (inactive) | > 44.1 µM (inactive) | > 100 µM (inactive) | > 100 µM (inactive) | > 58.7 µM (inactive) | > 100 µM (inactive) | > 100 µM (inactive) | > 100 µM (inactive) | > 100 µM (inactive) | > 52.5 µM (inactive) | 27 µM (inactive) | > 100 µM (inactive) | > 100 µM (inactive) | > 100 µM (inactive) | > 100 µM (inactive) | > 100 µM (inactive) | – |
| c1ccc(C2=NOC3(c4ccccc4)SC4CCCCC4CN23)cc1 (stereo not given) | 38.5 µM (inactive) | 15.2 µM (inactive) | 22 µM (inactive) | 27.5 µM (inactive) | 17.8 µM (inactive) | 55.1 µM (inactive) | 35.5 µM (inactive) | 32.6 µM (inactive) | 89.1 µM (inactive) | 29.8 µM (inactive) | 15.2 µM (inactive) | 18.7 µM (inactive) | 18.2 µM (inactive) | 25 µM (inactive) | 52.5 µM (inactive) | – | 49.1 µM (inactive) | 19.5 µM (inactive) | 83.9 µM (inactive) | – |
| COC(=O)/C(=C(/C)c1ccco1)P(=O)(OC)OC | > 100 µM (inactive) | > 100 µM (inactive) | > 100 µM (inactive) | 0.01 µM (active) | > 100 µM (inactive) | > 100 µM (inactive) | > 100 µM (inactive) | – | > 100 µM (inactive) | > 100 µM (inactive) | > 100 µM (inactive) | > 100 µM (inactive) | > 100 µM (inactive) | > 100 µM (inactive) | > 100 µM (inactive) | > 100 µM (inactive) | > 100 µM (inactive) | > 100 µM (inactive) | > 100 µM (inactive) | – |
| N=C(N)SCc1cc(Cl)cc(Cl)c1O | 16.9 µM (inactive) | 15.7 µM (inactive) | 19.8 µM (inactive) | 15.5 µM (inactive) | 16.3 µM (inactive) | 17.7 µM (inactive) | 22.3 µM (inactive) | 18.1 µM (inactive) | 22.6 µM (inactive) | 19 µM (inactive) | 16.6 µM (inactive) | 3.58 µM (inactive) | – | – | 17.4 µM (inactive) | 18.3 µM (inactive) | 18 µM (inactive) | 18.6 µM (inactive) | 18.8 µM (inactive) | 16.4 µM (inactive) |
| CCOC(=O)c1cnc2sc3ccc4ccccc4c3n2c1=O | 87.9 µM (inactive) | 94 µM (inactive) | 27.9 µM (inactive) | 23.9 µM (inactive) | 41.4 µM (inactive) | > 100 µM (inactive) | – | > 100 µM (inactive) | 98.6 µM (inactive) | 62.5 µM (inactive) | 32.1 µM (inactive) | 30.1 µM (inactive) | > 100 µM (inactive) | 40.1 µM (inactive) | 39.3 µM (inactive) | 48.6 µM (inactive) | > 100 µM (inactive) | 29.5 µM (inactive) | 62.5 µM (inactive) | – |
| Cc1c(C(=O)CC(=O)C(=O)NC2C3CC4CC(C3)CC2C4)[n+]([O-])c2ccccc2[n+]1[O-] (stereo not given) | > 100 µM (inactive) | > 100 µM (inactive) | > 100 µM (inactive) | > 100 µM (inactive) | > 100 µM (inactive) | > 100 µM (inactive) | > 100 µM (inactive) | > 100 µM (inactive) | > 100 µM (inactive) | > 100 µM (inactive) | > 100 µM (inactive) | > 100 µM (inactive) | > 100 µM (inactive) | > 100 µM (inactive) | > 100 µM (inactive) | > 100 µM (inactive) | > 100 µM (inactive) | > 100 µM (inactive) | > 100 µM (inactive) | – |
| c1nc(OCC2CCCCC2)c2nc[nH]c2n1 | 91.8 µM (inactive) | 58.3 µM (inactive) | 15.6 µM (inactive) | 42.9 µM (inactive) | 35.7 µM (inactive) | > 100 µM (inactive) | – | 72.6 µM (inactive) | > 100 µM (inactive) | 45.3 µM (inactive) | 26.1 µM (inactive) | 36.1 µM (inactive) | 51.4 µM (inactive) | – | 57.8 µM (inactive) | 47.2 µM (inactive) | > 100 µM (inactive) | > 100 µM (inactive) | > 100 µM (inactive) | 28.2 µM (inactive) |
| CNc1nc(=S)[nH]c2sc3c(c12)CCCC3 | > 75 µM (inactive) | > 75 µM (inactive) | > 75 µM (inactive) | 67 µM (inactive) | > 75 µM (inactive) | > 75 µM (inactive) | > 75 µM (inactive) | – | > 75 µM (inactive) | > 75 µM (inactive) | > 75 µM (inactive) | – | > 75 µM (inactive) | > 75 µM (inactive) | > 75 µM (inactive) | > 75 µM (inactive) | > 75 µM (inactive) | > 75 µM (inactive) | > 75 µM (inactive) | – |
| NNC(=O)/C(NC(=O)c1ccccc1)=C(\N)c1ccc(Cl)cc1 | > 100 µM (inactive) | > 100 µM (inactive) | 73.5 µM (inactive) | > 100 µM (inactive) | > 100 µM (inactive) | > 100 µM (inactive) | 80.5 µM (inactive) | > 100 µM (inactive) | > 100 µM (inactive) | > 100 µM (inactive) | > 100 µM (inactive) | > 100 µM (inactive) | > 100 µM (inactive) | 83.8 µM (inactive) | > 100 µM (inactive) | > 100 µM (inactive) | > 100 µM (inactive) | > 100 µM (inactive) | > 100 µM (inactive) | – |

Source: ChEMBL document CHEMBL1201862, “PubChem BioAssay data set” (2004)
